Columns and labels:
[1] = system: Caspase-7; assay: Caspase-7 activation; type: cell-based; conditions: FIG. 6
[2] = system: prostate specific antigen (PSA); assay: DHT-stimulated prostate specific antigen (PSA) expression in LNCaP cells; type: cell-based
[3] = system: cytochrome-C; assay: mitochondrial cytochrome C release; type: cell-based; conditions: FIG. 8
[4] = system: PC3 prostate cancer cells; assay: killing of hormone-independent PC3 prostate cancer cells; type: cell-based; conditions: increasing concentrations, 96 hours of exposure; FIG. 4
[5] = system: Caspase-8; assay: Caspase-8 activation; type: cell-based; conditions: FIG. 6
[6] = system: LNCaP cells; assay: growth and proliferation of LNCaP cells stimulated by dihydrotestosterone (DHT); type: cell-based
Method: Tetrandrine inhibits the growth and proliferation of prostate cancer cells in a dose- and time-dependent manner. For example, the growth and proliferation of LNCaP cells stimulated by dihydrotestosterone (DHT) and fetal calf serum (FCS) can be stopped or inhibited and, at higher concentrations or at longer exposure times, the cells are killed. Preferably, the concentration of tetrandrine used is between about 10 μM and about 60 μM. […] The cells take on an atrophied appearance after contact with tetrandrine.

[7] = doses of from 100 mg/day to 300 mg/day, prior studies; cited from earlier work
[8] = system: calcium channel; conditions: cited from earlier work
[9] = system: prostate cancer cells; assay: morphology of cellular organelles of prostate cancer cells; type: cell-based; conditions: about 10 μM and 20 μM tetrandrine
[10] = system: LNCaP cells; assay: growth and proliferation of LNCaP cells stimulated by fetal calf serum (FCS); type: cell-based
[11] = system: PC3 prostate cancer cells; assay: clonogenic activity of PC3 prostate cancer cells; type: cell-based; conditions: dose dependent, FIG. 5
[12] = system: LNCaP prostate cancer cells; assay: flow cytometry of apoptosis and necrosis in LNCaP cells; type: cell-based; conditions: 24 hours or 48 hours exposure
Excerpt: (§1) The increasing apoptosis and necrosis in hormone-independent and hormone dependent prostate cancer cells after exposure to tetrandrine occurs in a dose- and time-dependent manner.

[13] = system: PARP; assay: PARP cleavage; type: cell-based; conditions: FIG. 7
[14] = system: LNCaP cells; assay: dose response of LNCaP growth and proliferation, optical density of stained live cells; type: cell-based
[15] = system: Bcl-XL; assay: Bcl-XL down-regulation in prostate cancer cells; type: cell-based; conditions: FIG. 9
[16] = system: prostate cancer cells; assay: cell cycle effect in prostate cancer cells; type: cell-based; conditions: stated as apparent mechanism
Excerpt: as §1

[17] = system: Caspase-9; assay: Caspase-9 activation; type: cell-based; conditions: FIG. 6
[18] = system: Caspase-3; assay: Caspase-3 activation; type: cell-based; conditions: FIG. 6

Caspase-7 activation [1]: concentration-dependent increase
Caspase-8 activation [5]: concentration-dependent increase
Caspase-9 activation [17]: concentration-dependent increase
Caspase-3 activation [18]: concentration-dependent increase
Structure (SMILES): COc1ccc2cc1Oc1ccc(cc1)CC1c3cc(c(OC)cc3CCN1C)Oc1c(OC)c(OC)cc3c1C(C2)N(C)CC3 (centres unmarked) [tetrandrine, (1B)-6,6′,7,12-tetramethoxy-2,2′-dimethyl-berbaman]
DHT-stimulated PSA expression [2]: inhibits DHT-stimulated prostate specific antigen (PSA) expression in a dose-dependent manner
cytoplasmic cytochrome-C [3]: concentration-dependent increase
mitochondrial cytochrome-C [3]: concentration-dependent decrease
killing of hormone-independent PC3 cells [4]: dose-dependent killing
cell number and morphology of LNCaP cells in presence of FCS and DHT ([6]; about 10 μM to about 20 μM tetrandrine, FIG. 2B): decrease in cell number and atrophied appearance
growth and proliferation of LNCaP cells stimulated by DHT ([6]; about 10 μM to about 60 μM tetrandrine, FIG. 1A): inhibition of the growth and proliferation
toxicity [7]: minimal toxicity
calcium channel blocker activity [8]: minimal
morphology of nuclei and cytoskeleton [9]: nuclei of prostate cancer cells appear to shrink and round while the cytoskeleton is disrupted
cell number and morphology of LNCaP cells growing under FCS ([10]; 10 μM tetrandrine, FIG. 2A): decrease in cell number and the notable change in cell morphology
cell number and morphology of LNCaP cells growing under FCS ([10]; 20 μM tetrandrine, FIG. 2A): the decrease in cell number and the change in cell morphology is even more apparent
growth and proliferation of LNCaP cells stimulated by FCS ([10]; about 10 μM to about 60 μM tetrandrine, FIG. 1B): inhibition of the growth and proliferation
cell number and morphology of LNCaP cells growing under FCS ([10]; concentration not given): sharp decrease in cell number and a significant change in cell morphology
clonogenic activity of PC3 cells [11]: inhibition of the clonogenic activity
clonogenic activity of PC3 cells ([11]; listed as Tetrandrine): inhibits the clonogenic activity
apoptosis and necrosis by flow cytometry [12]: increasing apoptosis and necrosis in a dose- and time-dependent manner
PARP cleavage [13]: concentration-dependent increase
death of LNCaP cells at longer exposure ([14]; 48 hours and 72 hours versus 24 hours, each concentration): death of LNCaP cells is greater
growth of LNCaP cells, stained live cells ([14]; about 5 μM tetrandrine, 24 hours): growth of LNCaP cells is inhibited
killing of LNCaP cells, stained live cells ([14]; about 60 μM tetrandrine, 24 hours): almost all LNCAP cells are killed
Bcl-XL level in prostate cancer cells [15]: concentration-dependent down-regulation
mechanism of decreased proliferation / increased apoptosis (cell cycle) [16]: cell cycle arrest in G1

Reference: US20050245559A1, “Treatment and prevention of prostate cancer” (priority 2004, published 2005)
